The values that follow are results of earlier work, collected in patent US8278268B2, “Combination therapy comprising glucose reabsorption inhibitors and PPAR modulators” (Ortho-McNeil Pharmaceutical, Inc., priority 2001, dated 2012).

Series [1] deals with SGLT2 (SAAT1). To be noted: cited from earlier work; for Km: for D-glucose.
The target of series [2] is SGLT1 (Homo sapiens, UniProt P13866). To be noted: read-out: Km in vitro; Sm. Intestine; stoichiometry 2:1; for D-glucose; cited from earlier work.
Series [3] relates to SGLT in the kidney. To be noted: cited from earlier work.
In series [4] the target is T1, SGLT-2 in the kidney (Homo sapiens, UniProt P31639).
T1 sequence (P31639 1-672): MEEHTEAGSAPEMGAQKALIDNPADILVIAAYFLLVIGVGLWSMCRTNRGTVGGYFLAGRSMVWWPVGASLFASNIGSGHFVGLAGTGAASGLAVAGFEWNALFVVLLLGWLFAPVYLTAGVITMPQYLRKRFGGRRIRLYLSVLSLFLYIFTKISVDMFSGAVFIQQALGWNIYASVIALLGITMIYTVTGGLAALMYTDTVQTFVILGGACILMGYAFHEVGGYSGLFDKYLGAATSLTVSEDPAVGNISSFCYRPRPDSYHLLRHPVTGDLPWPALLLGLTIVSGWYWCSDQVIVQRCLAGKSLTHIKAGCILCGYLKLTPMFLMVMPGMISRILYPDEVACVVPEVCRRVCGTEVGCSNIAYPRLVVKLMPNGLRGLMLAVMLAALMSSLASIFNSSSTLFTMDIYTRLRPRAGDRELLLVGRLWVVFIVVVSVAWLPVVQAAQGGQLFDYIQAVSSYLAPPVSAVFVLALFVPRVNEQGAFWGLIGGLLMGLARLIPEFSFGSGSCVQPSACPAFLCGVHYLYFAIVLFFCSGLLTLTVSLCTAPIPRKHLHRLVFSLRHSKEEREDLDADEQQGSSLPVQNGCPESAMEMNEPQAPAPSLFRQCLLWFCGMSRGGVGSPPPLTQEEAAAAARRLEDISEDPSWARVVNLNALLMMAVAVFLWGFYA
To be noted: compared with T-1095; cited from earlier work.

The test system of series [5] is Na^+-glucose co-transporters located in chorionic membrane of the intestine and the kidney. To be noted: cited from earlier work.
The conditions of series [6]: subcutaneous daily administration; cited from earlier work.

Molecules are shown by their SMILES. Read-outs that look alike come from different tables or passages of the source.

Sequence of SGLT1 (P13866 whole entry, species assumed): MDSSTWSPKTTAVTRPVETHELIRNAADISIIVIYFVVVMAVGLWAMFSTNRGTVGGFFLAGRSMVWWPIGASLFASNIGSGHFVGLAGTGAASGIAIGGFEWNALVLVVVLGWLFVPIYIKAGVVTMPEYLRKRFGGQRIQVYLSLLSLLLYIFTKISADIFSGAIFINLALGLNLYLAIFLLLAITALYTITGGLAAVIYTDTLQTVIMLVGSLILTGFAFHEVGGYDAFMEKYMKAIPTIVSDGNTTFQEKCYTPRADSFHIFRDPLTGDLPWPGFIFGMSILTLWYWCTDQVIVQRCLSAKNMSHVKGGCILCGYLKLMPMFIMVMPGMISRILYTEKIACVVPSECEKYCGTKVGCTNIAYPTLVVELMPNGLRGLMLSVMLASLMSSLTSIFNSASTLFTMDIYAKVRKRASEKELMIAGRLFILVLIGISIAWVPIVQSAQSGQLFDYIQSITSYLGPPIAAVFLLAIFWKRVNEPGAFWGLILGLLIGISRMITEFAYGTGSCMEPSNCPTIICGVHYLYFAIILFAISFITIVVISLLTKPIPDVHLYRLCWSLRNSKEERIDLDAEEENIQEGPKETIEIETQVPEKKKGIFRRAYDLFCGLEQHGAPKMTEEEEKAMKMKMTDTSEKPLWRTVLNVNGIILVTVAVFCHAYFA

Usually Km stands for the substrate concentration at which the rate is half of its maximum. In the case of `O=C[C@H](O)[C@@H](O)[C@H](O)[C@H](O)CO` [D-glucose], the “TmG in vitro (maximal transport rate)” value is listed as 7.9 pmol/min/mm in series [1] (Kidney (S1, S3), stoichiometry 2:1) and 83 pmol/min/mm in series [1] (Kidney (S3), stoichiometry 1:1). Besides, the Km in series [1] (Kidney (S1, S3), stoichiometry 2:1, read-out: Km in vitro) is 390 µM; in series [1] (Kidney (S1, S3), stoichiometry 2:1, read-out: Km in vivo) it was 300 µM; in series [1] (Kidney (S3), stoichiometry 1:1, read-out: Km in vitro), 1640 µM; in series [1] (Kidney (S3), stoichiometry 1:1, read-out: Km in vivo) it was 6000 µM; in series [2] it was 100 µM.

As to `Cc1cc(O)c(C(=O)CCc2ccc3occc3c2)c(OC2OC(CO)C(O)C(O)C2O)c1` (centres unmarked) [T-1095A], the “inhibition of SGLT in the kidney” value in series [3] is “selective and potent inhibitor of SGLT in the kidney”. Further, the “inhibition of SGLT-2 in the kidney” value in series [4] is listed as “also a better substrate for the inhibition of SGLT-2 in the kidney”.

As for `O=C(CCc1ccc(O)cc1)c1c(O)cc(O)cc1O[C@@H]1O[C@H](CO)[C@@H](O)[C@H](O)[C@H]1O` [phlorizin], the “inhibition of Na+-glucose co-transporters” value in series [5] was “inhibits Na^+-glucose co-transporters”. For the same molecule, in series [6], the plasma glucose level result is listed as “the glucose level in a plasma is controlled at a normal level for a long time”.
